{"source": "patent US20090324701A1", "about": "“COMPOSITIONS CONTAINING (S)-BETHANECHOL AND THEIR USE IN THE TREATMENT OF INSULIN RESISTANCE, TYPE 2 DIABETES, GLUCOSE INTOLERANCE AND RELATED DISORDERS” (DIAMEDICA, INC., priority 2006, published 2009)", "key": {"muscarinic M1 receptors": {"target": "T1, muscarinic M1 receptors (Homo sapiens, UniProt P11229)", "T1 sequence (P11229 1-460)": "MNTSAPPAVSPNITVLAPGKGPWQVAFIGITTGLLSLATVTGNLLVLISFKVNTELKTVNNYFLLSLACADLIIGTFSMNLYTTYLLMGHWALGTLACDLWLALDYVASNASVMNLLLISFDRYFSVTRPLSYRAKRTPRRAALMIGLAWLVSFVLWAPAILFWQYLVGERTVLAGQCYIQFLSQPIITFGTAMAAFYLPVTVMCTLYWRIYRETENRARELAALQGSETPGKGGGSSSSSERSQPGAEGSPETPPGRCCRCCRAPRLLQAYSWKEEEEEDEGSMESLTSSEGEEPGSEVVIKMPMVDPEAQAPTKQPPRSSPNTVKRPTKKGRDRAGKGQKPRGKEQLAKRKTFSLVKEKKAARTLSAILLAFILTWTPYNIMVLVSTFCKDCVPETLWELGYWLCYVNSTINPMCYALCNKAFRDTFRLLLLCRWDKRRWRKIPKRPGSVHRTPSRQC", "experiment": "Radioligand binding muscarinic M1 binding assay", "settings": "for competition with [3H] N-methylscopolamine for binding to muscarinic M1 receptors: in words, refers to Table 1", "method": "(§1) The binding assay methodology was an adaptation of the methodology set out in Buckley N J, Bonner T I, Buckley C M and Brann M R (1989), Antagonist binding properties of five cloned muscarinic receptors expressed in CHO-K1 cells. Mol Pharmacol. 35(4): 469-476 and Luthin G R and Wolfe B B (1984), Comparison of [^3H]pirenzepine and [^3H]quinuclidinylbenzilate binding to muscarine cholinergic receptors in rat brain. J Pharmacol Exp Ther. 228(3):648-655.\n(§2) The binding assay was performed under the following conditions:\n(§3) Source: human recombinant CHO cells\n(§4) Ligand: 0.8 nM [^3H] N-Methylscopolamine\n(§5) Incubation Time/Temp: 2 hours at 25° C.\n(§6) Incubation Buffer: 50 mM Tris-HCl, pH 7.4, 10 mM MgCl2, 1 mM EDTA\n(§7) Non-specific Ligand: 1 μM Atropine\n(§8) Quantification Method: radioligand binding Significance Criteria: ≧50% of max stimulation of inhibition"}, "[1]": {"tested_on": "rats with insulin resistance produced by hepatic denervation", "experiment": "RIST, insulin sensitivity in rats with insulin resistance produced by hepatic denervation (Examples 5-7)", "type": "in vivo, male Spraque Dawely rats", "settings": "total dose into the portal vein 0.001 to 0.1 μg/kg beginning 10 minutes prior to insulin (50 mU/kg i.v.); present-tense example", "protocol": "The test subjects are male Spraque Dawely rats. The male rat is fasted for an 8 hour period and then re-fed for a 2 hour period. The rat is anesthetized with pentobarbital sodium (65 mg/kg) and is prepared surgically according to the standard animal preparation used to conduct a RIST test (Lautt et al., 1998). After surgery the rat stabilizes for 30 minutes.\nFollowing the stabilization period and establishment of a baseline, a control RIST is carried out to show the amount of glucose needed to maintain euglycemia after a bolus administration of insulin (50 mU/kg i.v.).\nThe animal undergoes surgery to cause insulin resistance. Surgical denervation of hepatic nerves reaching the liver along the hepatic artery is done. After an hour of recovery time a RIST is then carried out.\nRacemic bethanechol is administered to the rat that has been surgically denervated with a total dose into the portal vein of (0.001 to 0.1) μg/kg beginning 10 minutes prior to the insulin administration.\n(R)-bethanechol is administered to the rat that has been surgically denervated with a total dose into the portal vein of (0.001 to 0.1) μg/kg beginning 10 minutes prior to the insulin administration.\n(S)-bethanechol is administered to the rat that has been surgically denervated with a total dose into the portal vein of (0.001 to 0.1) μg/kg beginning 10 minutes prior to the insulin administration."}, "[2]": {"tested_on": "rats with denervation induced HDIR", "experiment": "RIST, reversal of HISS dependent insulin resistance caused by anterior hepatic plexus denervation (Example 8)", "type": "in vivo, male Spraque Dawely rats", "settings": "for potentiation for reversing denervation induced HDIR: dose not stated (FIG. 1); for reversal of denervation induced HDIR: in words (FIG. 1); for % Potentiation: potentiation of denervated RIST index", "method": "The test subjects were male Spraque Dawely rats (supplied by Charles River or The University of Manitoba) weighing between 222.0 to 375 g. The rats were separated into three test groups: For each test group, the rats were fasted for an 8 hour period and then re-fed for a 2 hour period. The rats were anesthetized with pentobarbital sodium (65 mg/kg) and were prepared surgically according to the standard animal preparation used to conduct a control RIST test (Lautt et al., 1998). After surgery the rat stabilizes for 30 minutes. Following the stabilization period and establishment of a baseline, a control RIST was carried out to show the amount of glucose needed to maintain euglycemia after a bolus administration of insulin (50 mU/kg i.v.). The animal underwent surgery to cause insulin resistance. Anterior plexus denervation and portal puncture was performed. After an hour of recovery time a post-denervation RIST was carried out. The inclusion criteria is a RIST index≧250 mg glucose/kg≦140 mg glucose/kg. For each test group, the test compound was administered at various doses μg/kg intraportal venous (0.5 mL bolus, rate of 0.05 mL/min plus 0.03 mL dead-space volume). Following administration of the test compound, a post-administration RIST was carried out and the potentiation calculated as follows: [(Reversal RIST Index−Blocked RIST Index)/Blocked RIST Index]×(100%)=% Potentiation. […] Each test group was repeated using various doses of each test compound to establish a dose-response curve. The doses were determined based upon initial findings."}, "muscarinic M3 receptors": {"target": "T2, muscarinic M3 receptors (Homo sapiens, UniProt P20309)", "T2 construct": "expressed in transfected cells; host or cells: CHO cells", "T2 sequence (P20309 whole entry)": "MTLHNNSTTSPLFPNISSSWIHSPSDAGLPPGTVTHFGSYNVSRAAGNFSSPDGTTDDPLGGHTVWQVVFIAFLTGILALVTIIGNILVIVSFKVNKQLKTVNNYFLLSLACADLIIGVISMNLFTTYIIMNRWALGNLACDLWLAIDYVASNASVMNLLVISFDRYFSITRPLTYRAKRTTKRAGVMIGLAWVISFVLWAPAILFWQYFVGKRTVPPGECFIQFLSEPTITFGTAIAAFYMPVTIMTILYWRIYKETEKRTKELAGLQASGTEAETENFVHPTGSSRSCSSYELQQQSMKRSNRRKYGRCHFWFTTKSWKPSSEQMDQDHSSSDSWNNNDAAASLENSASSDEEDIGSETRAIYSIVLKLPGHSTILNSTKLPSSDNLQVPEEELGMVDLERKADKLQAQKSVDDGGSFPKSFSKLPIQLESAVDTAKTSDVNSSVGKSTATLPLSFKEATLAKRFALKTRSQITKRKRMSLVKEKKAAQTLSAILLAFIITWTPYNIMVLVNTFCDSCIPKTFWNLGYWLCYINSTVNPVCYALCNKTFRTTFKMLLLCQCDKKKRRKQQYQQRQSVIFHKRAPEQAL", "experiment": "Radioligand binding muscarinic M3 binding assay", "settings": "for competition with [3H] N-methylscopolamine for binding to muscarinic M3 receptors: in words, refers to Table 2", "method": "as §1, §2, §3, §4, §5, §6, §7\nBmax: 534 pmol/mg protein\nas §8"}, "[3]": {"tested_on": "hepatic glutathione (GSH)", "experiment": "Hepatic glutathione levels in denervated rats (Bioxytech GSH420 kit)", "type": "in vivo", "settings": "compared to animals treated with (R)-bethanechol or racemic bethanechol; present-tense example", "method": "Hepatic glutathione (GSH) levels are determined for test animals from Example 8 which have a control RIST of ≧170 mg glucose/kg≦250 mg glucose mg/kg.\nFollowing the post-denervation RIST analysis, a liver sample is taken from each test animal using cork borer #4 or #5 to remove a section of liver from the left lateral liver lobe. The top and bottom (1-2 mm) of the sample are trimmed and cut into 2 equal pieces. The samples are flash frozen on dry ice in tin foil, and are labeled with the experiment number and date. The samples are stored at −80 until GSH analysis is performed. Liver GSH levels are determined using the Bioxytech GSH420 kit."}, "[4]": {"settings": "compound 100 μm, 0.8 nM [3H] N-Methylscopolamine, human recombinant CHO cells"}, "[5]": {"settings": "as compared to R-bethanechol and racemic bethanechol"}}, "data": [{"smiles": "CC(C[N+](C)(C)C)OC(N)=O", "note": "(racemic) [racemic bethanechol, bethanechol]", "values": [{"measurement": "inhibition at 100 µM", "setting": "muscarinic M1 receptors; [4]", "value": -4, "unit": "%"}, {"measurement": "competition with [3H] N-methylscopolamine for binding to muscarinic M1 receptors", "setting": "muscarinic M1 receptors", "value": "did not compete"}, {"measurement": "RIST index: restoration of insulin sensitivity", "setting": "[1]", "value": "restores insulin sensitivity"}, {"measurement": "potentiation for reversing denervation induced HDIR", "setting": "[2]", "value": "ca. 52%"}, {"measurement": "reversal of denervation induced HDIR", "setting": "[2]", "value": "substantial reversal"}, {"measurement": "inhibition at 100 µM", "setting": "muscarinic M3 receptors; [4]", "value": -5, "unit": "%"}, {"measurement": "competition with [3H] N-methylscopolamine for binding to muscarinic M3 receptors", "setting": "muscarinic M3 receptors", "value": "did not compete"}]}, {"smiles": "C[C@H](C[N+](C)(C)C)OC(N)=O.[Cl-]", "note": "[(R)-bethanechol, (R)-(−)-2-Carbamyloxy-1-(N,N,N-trimethyl)-propylammonium chloride]", "values": [{"measurement": "% Inhibition", "setting": "muscarinic M1 receptors; [4]", "value": 0, "unit": "%"}, {"measurement": "competition with [3H] N-methylscopolamine for binding to muscarinic M1 receptors", "setting": "muscarinic M1 receptors", "value": "did not compete"}, {"measurement": "RIST index: restoration of insulin sensitivity", "setting": "[1]", "value": "does not significantly restore insulin sensitivity"}, {"measurement": "reversal of denervation induced HDIR", "setting": "[2]", "value": "no significant reversal"}, {"measurement": "% Inhibition", "setting": "muscarinic M3 receptors; [4]", "value": "−11", "unit": "%"}, {"measurement": "competition with [3H] N-methylscopolamine for binding to muscarinic M3 receptors", "setting": "muscarinic M3 receptors", "value": "did not compete"}]}, {"smiles": "C[C@@H](C[N+](C)(C)C)OC(N)=O.[Cl-]", "note": "[(S)-bethanechol, (S)-(+)-2-Carbamyloxy-1-(N,N,N-trimethyl)-propylammonium chloride]", "values": [{"measurement": "increases in hepatic GSH levels", "setting": "[3]", "value": "greater increases in hepatic GSH levels"}, {"measurement": "binding affinity for muscarinic M1 receptors", "setting": "muscarinic M1 receptors; [5]", "value": "significantly higher"}, {"measurement": "% Inhibition", "setting": "muscarinic M1 receptors; [4]", "value": 31, "unit": "%"}, {"measurement": "RIST index: restoration of insulin sensitivity", "setting": "[1]", "value": "restores insulin sensitivity better than racemic bethanecol"}, {"measurement": "% Potentiation", "setting": "[2]; dose 0.005 μg/kg intraportal venous", "value": "−1.81", "unit": "%"}, {"measurement": "% Potentiation", "setting": "[2]; dose 0.010 μg/kg intraportal venous", "value": "−13.01", "unit": "%"}, {"measurement": "% Potentiation", "setting": "[2]; dose 0.025 μg/kg intraportal venous", "value": 12.24, "unit": "%"}, {"measurement": "% Potentiation", "setting": "[2]; dose 0.050 μg/kg intraportal venous", "value": 34.66, "unit": "%"}, {"measurement": "% Potentiation", "setting": "[2]; dose 0.100 μg/kg intraportal venous", "value": 48.29, "unit": "%"}, {"measurement": "% Potentiation", "setting": "[2]; dose 0.250 μg/kg intraportal venous", "value": 58.16, "unit": "%"}, {"measurement": "% Potentiation", "setting": "[2]; dose 0.500 μg/kg intraportal venous", "value": 71.19, "unit": "%"}, {"measurement": "% Potentiation", "setting": "[2]; dose 0.750 μg/kg intraportal venous", "value": 69.08, "unit": "%"}, {"measurement": "% Potentiation", "setting": "[2]; dose 2.000 μg/kg intraportal venous", "value": 57.21, "unit": "%"}, {"measurement": "% Potentiation", "setting": "[2]; dose 5.000 μg/kg intraportal venous", "value": 40.27, "unit": "%"}, {"measurement": "potentiation for reversing denervation induced HDIR", "setting": "[2]", "value": "ca. 72%"}, {"measurement": "reversal of denervation-induced HDIR over dose range", "setting": "[2]; doses ranging between 0.025 to 5.000 μg/kg, 0.250 to 2.000 μg/kg greatest % potentiation", "value": "reversed denervation-induced HDIR"}, {"measurement": "reversal of denervation induced HDIR", "setting": "[2]", "value": "substantial reversal"}, {"measurement": "binding affinity for muscarinic M3 receptors", "setting": "muscarinic M3 receptors; [5]", "value": "significantly higher"}, {"measurement": "% Inhibition", "setting": "muscarinic M3 receptors; [4]", "value": 42, "unit": "%"}]}]}
